Laboratory results: PMC4684994 (Journal of immunology (Baltimore, Md. : 1950), 2015)

Experiments:
[1] = target: T1, TRPV4 (transient receptor potential vanilloid 4) (Mus musculus, UniProt Q9EPK8); test: Inhibition of GSK1016790A-induced calcium influx; format: cell-based
[2] = target: T1, TRPV4 (transient receptor potential vanilloid 4); test: Calcium influx; format: cell-based

T1 sequence (Q9EPK8 whole entry): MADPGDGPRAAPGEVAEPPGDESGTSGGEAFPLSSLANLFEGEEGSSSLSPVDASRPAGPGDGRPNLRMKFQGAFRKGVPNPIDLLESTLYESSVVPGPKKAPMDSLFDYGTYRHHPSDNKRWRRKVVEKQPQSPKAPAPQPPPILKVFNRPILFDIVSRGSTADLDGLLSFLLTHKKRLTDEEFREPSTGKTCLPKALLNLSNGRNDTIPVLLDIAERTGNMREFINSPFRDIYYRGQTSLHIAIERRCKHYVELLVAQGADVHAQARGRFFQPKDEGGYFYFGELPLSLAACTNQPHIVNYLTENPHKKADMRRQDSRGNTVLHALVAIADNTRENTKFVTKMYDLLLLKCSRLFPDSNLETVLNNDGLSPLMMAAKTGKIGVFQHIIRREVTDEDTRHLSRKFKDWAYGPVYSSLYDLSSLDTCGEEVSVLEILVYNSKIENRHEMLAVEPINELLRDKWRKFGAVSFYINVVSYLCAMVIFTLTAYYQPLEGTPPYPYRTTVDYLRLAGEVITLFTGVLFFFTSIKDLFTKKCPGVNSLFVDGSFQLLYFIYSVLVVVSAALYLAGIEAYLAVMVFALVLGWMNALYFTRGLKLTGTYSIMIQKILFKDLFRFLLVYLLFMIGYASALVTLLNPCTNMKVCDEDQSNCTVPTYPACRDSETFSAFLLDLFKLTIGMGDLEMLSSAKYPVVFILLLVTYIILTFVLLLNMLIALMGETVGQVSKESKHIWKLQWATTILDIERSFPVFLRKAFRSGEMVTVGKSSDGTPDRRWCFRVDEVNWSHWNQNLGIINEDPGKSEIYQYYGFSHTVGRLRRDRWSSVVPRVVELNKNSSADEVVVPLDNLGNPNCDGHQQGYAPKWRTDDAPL

SMILES | IC50 [1] [µM] | EC50 [2] [µM]
Cc1c(C(=O)Nc2cccc(C(F)(F)F)c2)cc(-c2ccccc2)n1CCCN1CCOCC1 [HC, HC067047] | 7 | –
CC(C)C[C@H](NC(=O)c1cc2ccccc2s1)C(=O)N1CCN(C(=O)[C@H](CO)NS(=O)(=O)c2ccc(Cl)cc2Cl)CC1 [GSK, GSK1016790A] | – | 0.05
